Laboratory results reported in US6436925B1, “Substituted benzamides, their production and their use as cysteine protease inhibitors” (Abbott Laboratories, priority 1998, dated 2002).
pKi: −log10 of the molar value.

Molecular target: T1, calpain I (human μ-calpain) (Homo sapiens, UniProt P07384)
T1 construct: Human μ-calpain is isolated from erythrocytes; from tissue; host or cells: human erythrocytes
T1 sequence (P07384 1-714): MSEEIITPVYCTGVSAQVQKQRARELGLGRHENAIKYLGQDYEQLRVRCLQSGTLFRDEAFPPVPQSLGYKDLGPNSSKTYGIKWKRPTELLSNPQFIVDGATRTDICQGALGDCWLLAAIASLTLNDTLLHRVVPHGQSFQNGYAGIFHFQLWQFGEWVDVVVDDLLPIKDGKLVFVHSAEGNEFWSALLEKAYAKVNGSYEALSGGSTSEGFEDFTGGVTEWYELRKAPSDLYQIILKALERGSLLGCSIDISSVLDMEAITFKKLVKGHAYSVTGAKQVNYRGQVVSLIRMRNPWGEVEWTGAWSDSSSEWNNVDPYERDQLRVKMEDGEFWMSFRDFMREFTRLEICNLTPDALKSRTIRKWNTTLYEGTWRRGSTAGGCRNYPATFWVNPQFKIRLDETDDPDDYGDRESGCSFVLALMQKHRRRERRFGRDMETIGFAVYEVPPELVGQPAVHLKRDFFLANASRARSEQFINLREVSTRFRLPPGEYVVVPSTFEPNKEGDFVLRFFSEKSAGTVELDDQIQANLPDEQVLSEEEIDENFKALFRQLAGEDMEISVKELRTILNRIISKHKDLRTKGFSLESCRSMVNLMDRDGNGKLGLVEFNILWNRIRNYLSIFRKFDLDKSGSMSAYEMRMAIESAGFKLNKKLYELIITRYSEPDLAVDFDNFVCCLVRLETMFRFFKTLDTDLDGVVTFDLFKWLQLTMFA
T1 sequence (P04632 1-268 partner): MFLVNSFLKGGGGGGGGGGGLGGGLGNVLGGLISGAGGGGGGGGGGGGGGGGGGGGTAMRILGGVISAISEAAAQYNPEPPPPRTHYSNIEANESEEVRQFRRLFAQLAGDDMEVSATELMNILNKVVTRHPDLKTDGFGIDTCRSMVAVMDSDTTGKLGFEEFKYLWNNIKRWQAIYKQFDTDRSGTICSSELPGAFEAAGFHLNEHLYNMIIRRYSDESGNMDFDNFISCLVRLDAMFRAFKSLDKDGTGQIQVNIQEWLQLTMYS
Test: Calpain I and II assay (fluorogenic substrate Suc-Leu-Tyr-AMC)
Format: biochemical
Protocol: The inhibitory effect of the benzamides I has been determined using enzyme assays known from the literature, determining as criterion of effect a concentration of the inhibitor at which 50% of the enzyme activity is inhibited (=IC50). The amides I were measured in this way for their inhibitory effect on calpain I, calpain II and cathepsin B.
The testing of the inhibitory properties of calpain inhibitors takes place in buffer with 50 mM tris-HCl, pH 7.5; 0.1 M NaCl; 1 mM dithiotreithol [sic]; 0.11 mM CaCl2, using the fluorogenic calpain substrate Suc-Leu-Tyr-AMC (25 mM dissolved in DMSO, Bachem/switzerland). Human μ-calpain is isolated from erythrocytes, and enzyme with a purity >95%, assessed by SDS-PAGE, Western blot analysis and N-terminal sequencing, is obtained after more [sic] chromatographic steps (DEAE-Sepharose, phenyl-Sepharose, Superdex 200 and blue Sepharose). The fluorescence of the cleavage product 7-amino-4-methylcoumarin (AMC) is followed in a Spex Fluorolog fluorimeter at λex=380 nm and λem =460 nm. […]
In a test mixture, 10 μl of substrate (250 μM final) and then 10 μl of μ-calpain (2 μg/ml final, i.e. 18 nM) are added to a 1 ml cuvette containing buffer. The calpain-mediated cleavage of the substrate is measured for from 15 to 20 min. […] Ki values are determined using the classical equation for reversible inhibition: […]

For `O=C(N[C@@H](Cc1ccccc1)C(=O)CNS(=O)(=O)c1ccccc1)c1cccc(NS(=O)(=O)c2ccc3ccccc3c2)c1` [Example 1, 3(2-Naphthylsulfonamido)-N(3(S)-4-phenyl-1-phenylsulfonamidobutan-2-on-3-yl)benzamide], the inhibition at 1 µM (at a concentration of 1 μM) was over 50% and the pKi (calpain I, inferred from more than 50% inhibition at 1 μM) was over 6.00.
